Measured values published in patent US20070042452A1, “Detection of plasma ACE2” (priority 2005, published 2007).
“Also recorded” adds a separate entry of the source.

Legend:
HepG2 cells = assay: Shedding of ACE2 from HepG2 cells; format: cell-based; conditions: endogenous ACE2, phorbol ester treatment, data not shown
[1] = system: ACE2 release from the plasma membrane of CHO cells expressing full-length human ACE2; assay: Shedding of ACE2 from Chinese hamster ovary cells (ACE2 activity in medium, QFS assay); format: cell-based; conditions: PMA 1 μM, 4 hr incubation
Protocol: ACE2 catalytic activity was measured by cleavage of a quenched fluorescent substrate (QFS), namely (7-methoxycoumarin-4-yl)-acetyl-Ala-Pro-Lys(2,4-dinitrophenyl) as published in Vickers et al, 2002. The substrate is kept as stock at 5 mg/ml (7.14 mM) at −20° C. in DMSO, diluted 14.28-fold in ACE2 buffer (100 mM Tris-HCl, 1 M NaCl, pH 6.5) for a 500 μM working stock for assay. Assays were performed in black 96-well microtiter plates with 100 μl/well sample and ACE2 buffer in a final volume of 200 μl per well. In a separate series of wells, 100 μl/well sample, […] ACE2 buffer, and 20 μl/well of the specific ACE2 activity inhibitor, MLN-4760 (Millenium Pharmaceuticals, Cambridge, Mass., USA) at 100 mM is added. 50 μM QFS (20 μl/well) is then added to all wells.
Reactions proceeded at 37° C. within a temperature-controlled fluorescence microplate reader (FLUOStar Optima, BMG Labtech, Offenburg, Germany) and continuous readings of the liberated fluorescence taken over a 4 hr period (λex=320 nm, λem =405 nm). Specific ACE2 activity was calculated by subtraction of fluorescence in the presence of MLN-4760 inhibitor from the fluorescence in the absence of the MLN-4760 inhibitor.
Full-length human ACE2 was expressed in Chinese hamster ovary (CHO) cells using a modified DEAE-Dextran transfection method. […]

Compound: CCCCCCCCCCCCCC(=O)O[C@@H]1[C@@H](C)[C@@]2(O)[C@@H](C=C(CO)C[C@]3(O)C(=O)C(C)=C[C@@H]23)[C@@H]2C(C)(C)[C@]12OC(C)=O [PMA]
- shedding of ACE2 (HepG2 cells): increased up to two-fold
- ACE2 release from the plasma membrane (ACE2 catalytic activity in medium) [1]: increased; also recorded: enhanced
- ACE2 release from the plasma membrane (ACE2 catalytic activity in medium) ([1]; listed as phorbol ester): increased up to two-fold
